One experiment concerns H460 cells. The experiment in a line: Growth assay (Cell Titer Glo). It is filed as cell-based. To be noted: Homo sapiens, NCI-H460; H460, 72 hours, 5% serum; read-out: Growth inhibition IC50. How it is done:
(§1) Cells were plated in half area 96-well microtiter plates (Corning) at a density of 3, 000 cells per well. For drug treatment, cells were treated with compound or DMSO as vehicle (final concentration at 0.2%). For siRNA assays, cells were transfected with siRNAs under the same condition as described above. The effect of treatment on cell growth was measured using the Cell Titer Glo (CTG) assay (Promega) as specified by the measurement of viable cells based on ATP content after 72 hours standard culture. All growth assay involving NSCLCs and NHAECs were performed in the presence of 5% serum.
(§2) Drug effects on cell growth and IC50 values were determined as described previously. All experiments were repeated a minimum of three times to determine the reproducibility of the results. All error bars represent standard error of the mean (SEM). Statistical analysis was performed using Student’s t test or other as indicated. A P value of <0.05 was considered statistically significant.

The test system of a further experiment is H1975 cells. The experiment in a line: Growth assay (Cell Titer Glo). The experiment is classed as cell-based. To be noted: Homo sapiens, NCI-H1975; H1975, 72 hours, 5% serum; read-out: Growth inhibition IC50. As for the experimental part: as §1, §2
Experiment [1] deals with normal human airway epithelial cells (NHAECs). As to the kind of experiment: Growth assay (Cell Titer Glo). The experiment is classed as cell-based. How it is done: as §1, §2
In general terms: In ATP-based viability assays light output follows the ATP content of the culture.

The next experiment concerns A549 cells. As to the kind of experiment: Growth assay (Cell Titer Glo). It is filed as cell-based. To be noted: Homo sapiens; A549, 72 hours, 5% serum; read-out: Growth inhibition IC50. How it is done: as §1, §2
For another experiment, the target named is PDE7A (Homo sapiens, UniProt Q13946). The experiment in a line: IMAP fluorescence polarization PDE assay, recombinant PDE isozymes. Conditions: substrate cAMP. The experiment is classed as biochemical. Also noted: key: Inactive: >100 µmol/L shows no inhibition. As for the experimental part: (§3) The enzymatic activity of recombinant PDE or PDE activities in cell lysates were measured using the IMAP fluorescence polarization (FP) PDE assay (Molecular Devices) as previously described. PDE10 inhibitors and DMSO as the vehicle were added to assay buffer 10 minutes before the incubation with the enzyme reaction. Fluorescence polarization values were measured using Synergy H4 Hybrid Reader (BioTek).
A general note: In fluorescence polarisation assays a small probe gives low polarisation when free and higher when bound to something large.

The target of the next experiment is PDE9A (Homo sapiens, UniProt O76083). The experiment is described as above. The experiment is classed as biochemical. Also noted: key: Inactive: >100 µmol/L shows no inhibition. Conditions: substrate cGMP. As for the experimental part:
as §3

For a further experiment, the target named is PDE8A (Homo sapiens, UniProt O60658). The experiment is described as above. It is filed as biochemical. Also on record: key: Inactive: >100 µmol/L shows no inhibition. Conditions: substrate cAMP. As for the experimental part:
as §3

The test system of another experiment is PDE6A/B. The experiment is described as above. It is filed as biochemical. Conditions: substrate cGMP. Also on record: key: Inactive: >100 µmol/L shows no inhibition. How it is done:
as §3

The subject of experiment [2] is HOP62 PDE10 knockdown cells (shPDE10). The experiment in a line: Growth assay (Cell Titer Glo). It is filed as cell-based, human. To be noted: shPDE10, PQ10 2 µmol/L. How it is done:
The transient knockdown of PDE10 in NSCLC cells by PDE10-specific siRNA and scramble siRNA control was performed using RNAiMAX reagent (Invitrogen) as previously described. Effects of siRNA on NSCLC cell growth and PDE10 expression levels were measured after 72 hours of treatment. For a stable knockdown of PDE10, GIPZ lentiviral short hairpin RNA (shRNA) vectors targeting human PDE10, nonsilencing GPIZ lentiviral control vector, and transduction kit were purchased from Open Biosystems. Lentiviral particles of shRNA were produced in HEK293T cells (ATCC) according to the manufacturer’s instructions. HOP62 NSCLC cells were transfected by the lentivirus particles followed by puromycin (5 μg/mL) selection. Stable expression cell lines with shRNA of PDE10 (shPDE10) or lentiviral vector control (shCTL) were obtained by limited dilution for single cell clone and confirmed by Western blotting.
Cells were plated in half area 96-well microtiter plates (Corning) at a density of 3, 000 cells per well. For drug treatment, cells were treated with compound or DMSO as vehicle (final concentration at 0.2%). For siRNA assays, cells were transfected with siRNAs under the same condition as described above. The effect of treatment on cell growth was measured using the Cell Titer Glo (CTG) assay (Promega) as specified by the measurement of viable cells based on ATP content after 72 hours standard culture. […]

For the next experiment, the system named is β-catenin in H1299 cells. The experiment in a line: Western blotting, β-catenin phosphorylation. The experiment is classed as cell-based, human. Conditions: H1299 cells. As for the experimental part: Whole cell extraction was performed according to a previously described method using cell lysing buffer (Cell Signaling) supplemented with 10 mmol/L NaF for protein phosphorylation studies. Cell lysates were separated by 4-12% gradient, 7% or 10% pre-casting PAGE (Novex/Invitrogen) followed by electrophoretic transfer to a nitrocellulose membrane. Western blotting procedures were performed using Chemiluminescence Reagent (Pierce) and visualized using Chemi Doc Imaging System (BioRad).

In general, pIC50 refers to the IC50 on a negative log10 scale, so that one unit is a factor of ten.

pIC50: −log10 of the molar value. Some results are limits rather than exact numbers.

Chain of PDE9A (O76083 whole entry): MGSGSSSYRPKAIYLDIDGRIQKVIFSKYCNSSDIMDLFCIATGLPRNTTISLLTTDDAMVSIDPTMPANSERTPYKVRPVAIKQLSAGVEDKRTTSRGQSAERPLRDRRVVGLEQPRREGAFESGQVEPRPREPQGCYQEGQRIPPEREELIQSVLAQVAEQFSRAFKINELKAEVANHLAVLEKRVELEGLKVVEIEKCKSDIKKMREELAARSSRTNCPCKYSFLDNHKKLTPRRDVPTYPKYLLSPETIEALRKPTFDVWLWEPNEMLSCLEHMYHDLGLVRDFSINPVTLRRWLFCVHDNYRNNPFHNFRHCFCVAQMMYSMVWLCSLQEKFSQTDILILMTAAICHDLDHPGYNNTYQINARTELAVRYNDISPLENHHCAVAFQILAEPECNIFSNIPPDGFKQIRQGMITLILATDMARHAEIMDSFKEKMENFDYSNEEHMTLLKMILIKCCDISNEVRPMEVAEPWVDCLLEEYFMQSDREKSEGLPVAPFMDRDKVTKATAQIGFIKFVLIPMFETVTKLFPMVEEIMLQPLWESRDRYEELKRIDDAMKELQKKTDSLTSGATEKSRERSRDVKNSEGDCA
Chain of PDE8A (O60658 whole entry): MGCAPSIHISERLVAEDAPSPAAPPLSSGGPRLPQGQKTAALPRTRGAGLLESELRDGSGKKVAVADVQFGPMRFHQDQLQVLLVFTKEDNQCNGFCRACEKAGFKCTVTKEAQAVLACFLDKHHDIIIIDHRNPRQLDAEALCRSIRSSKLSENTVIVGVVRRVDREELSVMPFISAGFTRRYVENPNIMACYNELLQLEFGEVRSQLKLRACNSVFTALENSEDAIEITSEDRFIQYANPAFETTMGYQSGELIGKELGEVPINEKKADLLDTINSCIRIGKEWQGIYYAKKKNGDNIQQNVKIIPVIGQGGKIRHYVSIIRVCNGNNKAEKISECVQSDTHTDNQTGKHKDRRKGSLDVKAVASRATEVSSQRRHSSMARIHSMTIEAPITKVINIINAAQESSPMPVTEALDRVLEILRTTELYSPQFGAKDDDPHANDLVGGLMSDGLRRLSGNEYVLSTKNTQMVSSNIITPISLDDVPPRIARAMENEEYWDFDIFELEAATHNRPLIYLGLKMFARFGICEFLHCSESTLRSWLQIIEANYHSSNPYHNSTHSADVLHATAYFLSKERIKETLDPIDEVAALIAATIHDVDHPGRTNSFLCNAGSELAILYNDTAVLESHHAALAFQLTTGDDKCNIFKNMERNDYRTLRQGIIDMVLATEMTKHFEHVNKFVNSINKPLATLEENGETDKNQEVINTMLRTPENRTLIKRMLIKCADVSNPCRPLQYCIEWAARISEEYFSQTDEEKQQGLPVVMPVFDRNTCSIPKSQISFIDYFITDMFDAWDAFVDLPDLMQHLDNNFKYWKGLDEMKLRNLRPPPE
Chain of PDE7A (Q13946 whole entry): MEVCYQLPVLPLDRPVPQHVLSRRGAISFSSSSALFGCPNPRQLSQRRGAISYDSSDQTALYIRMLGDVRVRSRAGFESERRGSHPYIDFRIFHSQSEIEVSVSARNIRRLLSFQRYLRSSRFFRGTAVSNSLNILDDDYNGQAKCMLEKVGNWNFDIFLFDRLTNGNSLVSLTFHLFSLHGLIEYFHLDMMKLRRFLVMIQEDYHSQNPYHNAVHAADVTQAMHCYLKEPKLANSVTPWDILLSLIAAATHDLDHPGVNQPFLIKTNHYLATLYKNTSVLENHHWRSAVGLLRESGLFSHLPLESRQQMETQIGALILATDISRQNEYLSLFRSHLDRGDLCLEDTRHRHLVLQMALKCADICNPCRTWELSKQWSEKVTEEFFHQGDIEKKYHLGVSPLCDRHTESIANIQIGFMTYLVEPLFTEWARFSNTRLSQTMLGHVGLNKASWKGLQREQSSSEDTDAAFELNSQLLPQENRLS

`COc1cc2ncnc(N3CC[C@@H](Oc4cnc5ccccc5n4)C3)c2cc1OC` [PQ10]: the pIC50 in the experiment with H460 cells is 6.49; with H1975 cells it was 5.90; in experiment [1] (Homo sapiens, Epithelial cell, NHAEC, 72 hours, 5% serum, read-out: Growth inhibition IC50), 4.76; in the experiment on A549 cells it was 6.27. The “fold less sensitive to PQ10 treatment (NHAECs vs lung tumor cells)” value in experiment [1] (growth assays under identical conditions) is reported as no more than 50 fold. Moreover, the “IC50 of PQ10 cAMP” value at PDE7A and on PDE8A was “Inactive” throughout. The “IC50 of PQ10 cGMP” value at PDE9A and in the experiment with PDE6A/B was “Inactive” throughout. In experiment [2], the “sensitivity of PDE10 knockdown HOP62 cells in growth assay” value is reported as “appreciably less sensitive”. In addition, the “phosphorylation level of β-catenin at pSer675” value in the experiment on β-catenin in H1299 cells was “no change”. Further, the “phosphorylation of β-catenin at pSer552” value with β-catenin in H1299 cells (concentration-dependent, 0.5-1 hour) is “increased the phosphorylation”.

Values taken from PMC5642477, “Phosphodiesterase 10A is overexpressed in lung tumor cells and inhibitors selectively suppress growth by blocking β-catenin and MAPK signaling” (Oncotarget, 2017).
